Assay results from US7678918B2, “Intermediates for imidazonaphthyridines” (3M Innovative Properties Company, priority 1997, dated 2010).
Structures can show the parent of a compound that is named as a salt.

Tests used:
IFN = assay: Cytokine Induction in Human Cells: interferon (IFN) secreted by PBMCs, A549/encephalomyocarditis bioassay; format: cell-based; conditions: 18 to 24 hours
Excerpt: (§1) An in vitro human blood cell system was used to assess cytokine induction by compounds of the invention. Activity is based on the measurement of interferon and tumor necrosis factor (ℑ) (IFN and TNF, respectively) secreted into culture media as described by Testerman et. al. In “Cytokine Induction by the Immunomodulators Imiquimod and S-27609”, Journal of Leukocyte Biology, 58, 365-372 (September, 1995). Blood Cell Preparation for Culture
(§2) Whole blood is collected by venipuncture into EDTA vacutainer tubes from healthy human donors. Peripheral blood mononuclear cells (PBMCs) are separated from whole blood by Histopaque®-1077 (Sigma Chemicals, St. Louis, Mo.) density gradient centrifugation. The PBMCs are suspended at 1.5-2×10^6 cells/mL in RPMI 1640 medium containing 10% fetal bovine serum, 2 mM L-glutamine and 1% penicillin/streptomycin solution (RPMI complete). 1 mL portions of PBMC suspension are added to 24 well flat bottom sterile tissue culture plates.
(§3) The compounds are solubilized in dimethyl sulfoxide (DMSO). The DMSO concentration should not exceed a final concentration of 1% for addition to the culture wells. The compounds are generally tested in a concentration range of from 0.1 to 100 μM.
(§4) The solution of test compound is added to the wells containing 1 mL of PBMCs in media. The plates are covered with plastic lids, mixed gently and then incubated for 18 to 24 hours at 37° C. with a 5% carbon dioxide atmosphere.
(§5) Following incubation the plates are centrifuged for 5-10 minutes at 1000 rpm (˜200×g) at 4° C. The cell culture supernatant is removed with a sterile polypropylene pipet and transferred to a 2 mL sterile cryotube. Samples are maintained at −70° C. until analysis.
Interferon is determined by bioassay using A549 human lung carcinoma cells challenged with encephalomyocarditis. The details of the bioassay method have been described by G. L. Brennan and L. H. Kronenberg in “Automated Bioassay of Interferons in Micro-test Plates”, Biotechniques, June/July 78, 1983, incorporated herein by reference. Briefly stated the method is as follows: A549 cells are incubated with samples and standard interferon dilutions at 37° C. for 24 hours. The incubated cells are then infected with an inoculum of encephalomyocarditis virus. The infected cells are incubated for an additional 24 hours at 37° C. before quantifying for viral cytopathic effect. The viral cytopathic effect is quantified by staining followed by visual scoring of the plates. Results are expressed as alpha reference units/mL based on the value obtained for NIH Human Leukocyte IFN standard.

TNF = assay: Cytokine Induction in Human Cells: tumor necrosis factor (TNF) secreted by PBMCs, ELISA; format: cell-based; conditions: 18 to 24 hours
Excerpt: as §1, §2, §3, §4, §5
Tumor necrosis factor (ℑ) (TNF) concentration is determined using an ELISA kit available from Genzyme, Cambridge, Mass. The results are expressed as pg/mL.
Also: call rule not given here.

Compound | IFN induction (IFN; Dose Concentration 0.1 μM) | IFN induction (IFN; Dose Concentration 1.0 μM) | IFN induction (IFN; Dose Concentration 10.0 μM) | IFN induction (IFN; Dose Concentration 100.0 μM) | TNF induction (TNF; Dose Concentration 0.1 μM) | TNF induction (TNF; Dose Concentration 1.0 μM) | TNF induction (TNF; Dose Concentration 10.0 μM) | TNF induction (TNF; Dose Concentration 100.0 μM)
CCCCc1nc2c(N)nc3cccnc3c2n1CCCCNC(=O)CCCCCCCCC(=O)OC [Example 158] | − | + | + | + | − | − | + | −
CCCCc1nc2c(N)nc3cccnc3c2n1CCNC(=O)CCCc1ccc([N+](=O)[O-])cc1 [Example 195] | − | − | + | − | − | + | + | +
CCCCc1nc2c(N)nc3cccnc3c2n1CCNC(=O)C1C2CC3C(C2=O)C31 (stereo not shown) [Example 198] | − | − | + | + | − | + | + | +
CCCCc1nc2c(N)nc3cccnc3c2n1CCCCNC(=O)c1ccco1 [Example 51, N-[4-(4-Amino-2-butyl-1H-imidazo[4,5-c][1,5]naphthyridin-1-yl)butyl]-2-furamide] |  | + | + | + |  | + | + | −
CCCCc1nc2c(N)nc3cccnc3c2n1CCNC(=O)CCN1C(=O)c2ccccc2C1=O [Example 211] | − | − | + | + | − | − | + | +
CCCCc1nc2c(N)nc3cccnc3c2n1CCNC(=O)c1ccc(F)cc1 [Example 129] |  | + | + | + |  | + | + | +
CCCCc1nc2c(N)nc3cccnc3c2n1CCNC(=O)c1c(C)cc(C)cc1C [Example 143] |  | − | + | + |  | − | ± | −
CCCCc1nc2c(N)nc3cccnc3c2n1CCNC(=O)CC(C)(C)C [Example 135] |  | − | + | + |  | − | + | +
CCCCc1nc2c(N)nc3cccnc3c2n1CCCCNC(=O)OCC1c2ccccc2-c2ccccc21 [Example 57, 9H-9-Fluorenylmethyl N-[4-(4-Amino-2-butyl-1H-imidazo[4,5-c][1,5]naphthyridin-1-yl)butyl]carbamate] | − | + | + | + | − | − | + | +
CCCCc1nc2c(N)nc3cccnc3c2n1CCNC(=O)c1ccc(Br)s1 [Example 204] | + | + | + | + | − | + | + | +
CCCCc1nc2c(N)nc3cccnc3c2n1CCCCNC(=O)COCc1ccccc1 [Example 157] | + | + | + | − | − | − | + | −
CCCCc1nc2c(N)nc3cccnc3c2n1CCNC(=O)Cc1ccsc1 [Example 191] |  | + | + | + |  | − | + | +
CCCCc1nc2c(N)nc3cccnc3c2n1CCCCNC(=O)c1ccc(C#N)cc1 [Example 176] | − | + | + | + | − | − | + | +
CCCCc1nc2c(N)nc3cccnc3c2n1CCNC(=O)CC1CCCC1 [Example 124] |  | + | + | + |  | − | + | +
CCCCc1nc2c(N)nc3cccnc3c2n1CCCCNC(=O)c1cccnc1 [Example 54, N^3-[4-(4-Amino-2-butyl-1H-imidazo[4,5-c][1,5]naphthyridin-1-yl)butyl]nicotinamide] |  | + | + | + |  | + | + | +
CCCCc1nc2c(N)nc3cccnc3c2n1CCNC(=O)C1CC(=O)N(Cc2ccc(Cl)cc2)C1 (stereo not shown) [Example 210] | − | − | + | + | + | + | + | +
CCCCc1nc2c(N)nc3cccnc3c2n1CCNC(=O)CCc1ccccc1 [Example 96, N^1-[2-(4-Amino-2-butyl-1H-imidazo[4,5-c][1,5]naphthyridin-1-yl)ethyl]-3-phenylpropanamide Hydrochloride] | − | ± | + | + | − | − | + | +
CCCCc1nc2c(N)nc3cccnc3c2n1CCCCNC(=O)Cc1ccc(OC)cc1 [Example 187] | − | + | + | + | − | + | + | −
CCCCc1nc2c(N)nc3cccnc3c2n1CCCCNC(=O)Cc1ccccc1 [Example 55, N-[4-(4-Amino-2-butyl-1H-imidazo[4,5-c][1,5]naphthyridin-1-yl)butyl]phenylaceatamide] |  | + | + | + |  | + | + | −
CCCCc1nc2c(N)nc3cccnc3c2n1CCNC(=O)C1(c2ccc(Cl)cc2)CCCC1 [Example 119] |  | − | − | − |  | − | − | −
CCCCc1nc2c(N)nc3cccnc3c2n1CCNC(=O)CCCCCCCCC(=O)OC [Example 122] |  | − | + | + |  | − | + | +
CCCCc1nc2c(N)nc3cccnc3c2n1CCCCNC(=O)c1cccnc1Cl [Example 183] | − | − | − | − | − and + | − and + | − and + | −
CCCCc1nc2c(N)nc3cccnc3c2n1CCNC(=O)CCc1cccnc1 [Example 208] | − | − | + | + | − | − and ± | − and + | − and +
CCCCc1nc2c(N)nc3cccnc3c2n1CCCCNC(=O)c1ccc2ncccc2c1 [Example 107, N^1-[4-(4-Amino-2-butyl-1H-imidazo[4,5-c][1,5]naphthyridin-1-yl)butyl]-6-quinolinecarboxamide] | + | + | + | − | − | + | + | −
